Source: PMC8116058, “De novo macrocyclic peptides dissect energy coupling of a heterodimeric ABC transporter by multimode allosteric inhibition” (eLife, 2021)
Positions of bridges follow the written chain, without caps; N, C: chain ends. Non-standard residues stand in square brackets, D forms with d. Residues, ends and D or L forms follow the SMILES beside them. *: point of attachment. 5FAM = O=C1OC2(c3ccc(O)cc3Oc3cc(O)ccc32)c2ccc(C(=O)*)cc21; βAla = NCCC(=O)O

Experiments:
[1] = test system: detergent-solubilized IF or OF TmrA^EQB; assay: CP^F anisotropy with IF or OF TmrA^EQB under nucleotide conditions; assay type: binding, Thermus thermophilus; settings: for Binding under nucleotide conditions: absence and presence of ATP and ADP
Text: ABC transport complexes such as TmrAB run through multiple conformational states along the ATP hydrolysis cycle to drive unidirectional substrate transport ([Hofmann et al., 2019]; [Stefan et al., 2020]). Within the substrate translocation cycle, two major conformers, inward-facing (IF) and outward-facing (OF), were identified. To investigate whether CPs favor one of these conformers, we probed the binding of CP^Fs by fluorescence polarization analysis. […] In the latter case, the interaction studies were performed immediately after the IF-to-OF switch by incubation with ATP for 5 min at 45°C. To exclude an OF-to-IF return (τ1/2 of 25 min) ([Stefan et al., 2020]), the fluorescence anisotropy was recorded only within the first minute of incubation.
(§1) Figure 5. […] (A, B) CP6^F (A) or CP13^F (B, 50 nM each) were incubated with increasing concentrations of detergent-solubilized inward-facing TmrAB (in the absence of Mg-ATP) or outward-facing TmrA^EQB, which was trapped with Mg-ATP (1 mM) for 5 min at 45°C as described ([Hofmann et al., 2019]; [Stefan et al., 2020]). Immediately after, the fluorescence anisotropy was assayed at λex/em = 485/520 nm. The difference in fluorescence polarization was normalized to free and fully bound CP^F. Data were fitted by a one-site binding model. […] TmrAB (2 µM each) were mixed with CP^Fs (4 µM), ATP (1 mM, traced with [α^32P]-ATP), and MgCl2 (5 mM) for 5 min at 4°C or 45°C. Cold ATP (10 mM) was added, and freely exchangeable nucleotides were removed by rapid gel filtration. Occluded nucleotides were analyzed by thin layer chromatography and autoradiography. Representative radiograms for independent triplicates are shown. (D) Stably occluded nucleotides, [α^32P]-ATP and [α^32P]-ADP, were quantified by autoradiography. Data were normalized to the vanadate-trapped state. In (A, B, D), mean values ± SD (n = 3) are shown. Figure 5—source data 1. Source Data for Figure 5. Figure 5—figure supplement 1. […] (A) CP^Fs (50 nM each) were incubated with increasing concentrations of detergent-solubilized IF TmrAB in the inward-facing (IF) conformation (absence of Mg-ATP) or TmrA^EQB populated in the outward-facing (OF) conformation, which was trapped in the OF conformation by Mg-ATP (1 mM) after 5 min incubation at 45°C. The difference in fluorescence polarization was normalized to unbound (0%) and 100% bound CP^F. Data were fitted by a one-site binding model. Fluorescence anisotropy was recorded at λex/em = 485/520 nm. […] TmrA^EQB (2 µM) were incubated in the absence and presence of CP^Fs (4 µM each), ATP (1 mM, traced with [α^32P]-ATP), and MgCl2 (5 mM) for 5 min at 4°C or 45°C. Cold ATP (10 mM) was added, and free nucleotides were removed by rapid gel filtration. Occluded nucleotides were analyzed by thin layer chromatography and autoradiography. Representative radiograms for independent triplicates are shown. […] Figure 5—figure supplement 1—source data 1.
To determine equilibrium binding constants, CP^Fs (50 nM) were incubated with increasing concentrations of TmrAB-containing or empty liposomes. To probe the conformational selectivity, CP^Fs (50 nM) were mixed with detergent-solubilized IF TmrAB or OF TmrA^EQB. Before, OF TmrA^EQB was nucleotide-trapped by incubation with ATP (1 mM) and MgCl2 (3 mM) in the absence of CP^Fs for 5 min at 45°C.

TmrA^EQB = assay: Nucleotide occlusion, catalytically reduced variant; assay type: biochemical, Thermus thermophilus; settings: CP^F 4 µM; 5 min 45°C
Experimental: as §1
We also examined the impact of CP^Fs on the IF-to-OF transition of wild-type TmrAB induced by ATP binding through nucleotide occlusion (stable trapping) as the readout. We induced the IF-to-OF switch with radiotraced [α^32P]-ATP for 5 min at 45°C in the presence and absence of CPs and removed unbound nucleotides by rapid gel filtration. Subsequently, the occluded nucleotides were identified and quantified by thin layer chromatography and autoradiography (Figure 5C, D).
Detergent-solubilized TmrAB (2 µM) were incubated with ATP (1 mM) traced with [α^32P]-ATP (Hartmann Analytic), MgCl2 (5 mM), CP^Fs (4 µM), or orthovanadate (1 mM) for 5 min at 45°C. […]

[2] = TmrAB, 4 °C, CP^F 50 nM, TmrA^EQB 150 nM (CP6^F), 170 nM (CP12^F), 50 nM (CP13^F), 120 nM (CP14^F)
[3] = TmrAB, 45 °C, no nucleotide, CP^F 50 nM, TmrA^EQB 50-170 nM
[4] = TmrAB, ADP, 45 °C, CP^F 50 nM, TmrA^EQB 50-170 nM
[5] = TmrAB, ATP, 45 °C (OF), CP^F 50 nM, TmrA^EQB 50-170 nM
[6] = listed as 4 °C: CP^F 50 nM without TmrAB

SMILES: CC[C@H](C)[C@@H]1NC(=O)[C@H]([C@@H](C)O)NC(=O)[C@H](CC(C)C)NC(=O)[C@H](Cc2c[nH]c3ccccc23)NC(=O)[C@H](Cc2ccccc2)NC(=O)[C@H](CC(N)=O)NC(=O)[C@H](CCC(=O)O)NC(=O)[C@H](CC(C)C)NC(=O)[C@H](CS)NC(=O)[C@H](Cc2c[nH]cn2)NC(=O)[C@H](CO)NC(=O)[C@@H](Cc2ccc(O)cc2)NC(=O)CSC[C@@H](C(=O)NCC(=O)N[C@@H](CO)C(=O)NCCC(=O)NCCC(=O)N[C@@H](CCCNC(=N)N)C(=O)N[C@@H](CCCCNC(=O)c2ccc3c(c2)C(=O)OC32c3ccc(O)cc3Oc3cc(O)ccc32)C(N)=O)NC(=O)[C@H](CC(C)C)NC1=O [CP6] ({CH2CO}-[dY]SHCLENFWLTILCGS[βAla][βAla]RK(5FAM)-NH2; thioether N-14)
- Bound CP^F, fluorescence anisotropy [1, 2]: 0.143
- Bound CP^F, fluorescence anisotropy [1, 3]: 0.132
- Bound CP^F, fluorescence anisotropy [1, 4]: 0.129
- Bound CP^F, fluorescence anisotropy [1, 5]: 0.050
- Binding under nucleotide conditions [1]: preferentially bind under conditions where IF TmrAB is exclusively populated
- Bound CP^F, fluorescence anisotropy [1, 6]: 0.019
- Effect on ATP occlusion, TmrA^EQB (TmrA^EQB): inhibited ATP occlusion

SMILES: CC(C)C[C@@H]1NC(=O)[C@H](Cc2ccccc2)NC(=O)CNC(=O)[C@H](CO)NC(=O)[C@H](Cc2ccccc2)NC(=O)[C@H](CC(=O)O)NC(=O)[C@@H]2CCCN2C(=O)[C@H]([C@@H](C)O)NC(=O)[C@@H](Cc2ccc(O)cc2)NC(=O)CSC[C@@H](C(=O)NCC(=O)N[C@@H](CO)C(=O)NCCC(=O)NCCC(=O)N[C@@H](CCCNC(=N)N)C(=O)N[C@@H](CCCCNC(=O)c2ccc3c(c2)C(=O)OC32c3ccc(O)cc3Oc3cc(O)ccc32)C(N)=O)NC(=O)[C@H](C)NC(=O)[C@H](CC(N)=O)NC(=O)[C@H](CCCNC(=N)N)NC(=O)[C@H](CC(C)C)NC(=O)[C@H](Cc2ccccc2)NC(=O)[C@H](C)NC1=O [CP12] ({CH2CO}-[dY]TPDFSGFLAFLRNACGS[βAla][βAla]RK(5FAM)-NH2; thioether N-16)
- Bound CP^F, fluorescence anisotropy [1, 2]: 0.127
- Bound CP^F, fluorescence anisotropy [1, 3]: 0.130
- Bound CP^F, fluorescence anisotropy [1, 4]: 0.122
- Bound CP^F, fluorescence anisotropy [1, 5]: 0.069
- Binding under nucleotide conditions [1]: preferentially bind under conditions where IF TmrAB is exclusively populated
- Bound CP^F, fluorescence anisotropy [1, 6]: 0.023
- Effect on ATP occlusion, TmrA^EQB (TmrA^EQB): inhibited ATP occlusion

SMILES: CC[C@H](C)[C@@H]1NC(=O)[C@H](Cc2c[nH]c3ccccc23)NC(=O)[C@H](CC(N)=O)NC(=O)[C@H](C)NC(=O)[C@H](CO)NC(=O)[C@@H]2CCCN2C(=O)[C@H](CC(=O)O)NC(=O)[C@@H](Cc2ccc(O)cc2)NC(=O)CSC[C@@H](C(=O)NCC(=O)N[C@@H](CO)C(=O)NCCC(=O)NCCC(=O)N[C@@H](CCCNC(=N)N)C(=O)N[C@@H](CCCCNC(=O)c2ccc3c(c2)C(=O)OC32c3ccc(O)cc3Oc3cc(O)ccc32)C(N)=O)NC(=O)[C@H]([C@@H](C)O)NC(=O)[C@H](CC(C)C)NC(=O)[C@H](CC(C)C)NC(=O)[C@H](C(C)C)NC(=O)[C@H](CC(C)C)NC1=O [CP13] ({CH2CO}-[dY]DPSANWILVLLTCGS[βAla][βAla]RK(5FAM)-NH2; thioether N-14; C-terminus assumed)
- Bound CP^F, fluorescence anisotropy [1, 2]: 0.055
- Bound CP^F, fluorescence anisotropy [1, 3]: 0.051
- Bound CP^F, fluorescence anisotropy [1, 4]: 0.050
- Bound CP^F, fluorescence anisotropy [1, 5]: 0.048
- Binding under nucleotide conditions [1]: bind in the absence and presence of ATP and ADP
- Bound CP^F, fluorescence anisotropy [1, 6]: 0.023
- Effect on ATP occlusion, TmrA^EQB (TmrA^EQB): ATP is occluded in the presence or absence

SMILES: CC(C)[C@@H]1NC(=O)[C@H](Cc2ccccc2)NC(=O)[C@@H]2CCCN2C(=O)[C@H](CC(N)=O)NC(=O)[C@H](Cc2c[nH]c3ccccc23)NC(=O)[C@H](C(C)C)NC(=O)[C@H](Cc2ccc(O)cc2)NC(=O)[C@H](Cc2ccccc2)NC(=O)[C@@H](Cc2ccc(O)cc2)NC(=O)CSC[C@@H](C(=O)NCC(=O)N[C@@H](CO)C(=O)NCCC(=O)NCCC(=O)N[C@@H](CCCNC(=N)N)C(=O)N[C@@H](CCCCNC(=O)c2ccc3c(c2)C(=O)OC32c3ccc(O)cc3Oc3cc(O)ccc32)C(N)=O)NC(=O)[C@H](CCCCN)NC(=O)[C@H](Cc2ccccc2)NC1=O [CP14] ({CH2CO}-[dY]FYVWNPFVFKCGS[βAla][βAla]RK(5FAM)-NH2; thioether N-12; C-terminus assumed)
- Bound CP^F, fluorescence anisotropy [1, 2]: 0.134
- Bound CP^F, fluorescence anisotropy [1, 3]: 0.132
- Bound CP^F, fluorescence anisotropy [1, 4]: 0.131
- Bound CP^F, fluorescence anisotropy [1, 5]: 0.127
- Binding under nucleotide conditions [1]: bind in the absence and presence of ATP and ADP
- Bound CP^F, fluorescence anisotropy [1, 6]: 0.023
- Effect on ATP occlusion, TmrA^EQB (TmrA^EQB): ATP is occluded in the presence or absence
